Reference: publication PMC10508841, “Two jasmonic acid carboxyl methyltransferases in Gossypium hirsutum involved in MeJA biosynthesis may contribute to plant defense” (Frontiers in Plant Science, 2023)

How the values were obtained:
GhJMT2 = target: T1, GhJMT2 (Gossypium hirsutum, UniProt A0A2K9REX3); assay: GC-MS product detection, recombinant E. coli supernatant; assay type: biochemical; conditions: SAM 1 uL of 100 mM, KCl, 25 °C, 30 min; empty vector control; product MeJA
T1 construct: gene JMT2; cloning primers encode MEVVQVL... ...PMDVFLF (derived)
T1 sequence (A0A2K9REX3 1-372): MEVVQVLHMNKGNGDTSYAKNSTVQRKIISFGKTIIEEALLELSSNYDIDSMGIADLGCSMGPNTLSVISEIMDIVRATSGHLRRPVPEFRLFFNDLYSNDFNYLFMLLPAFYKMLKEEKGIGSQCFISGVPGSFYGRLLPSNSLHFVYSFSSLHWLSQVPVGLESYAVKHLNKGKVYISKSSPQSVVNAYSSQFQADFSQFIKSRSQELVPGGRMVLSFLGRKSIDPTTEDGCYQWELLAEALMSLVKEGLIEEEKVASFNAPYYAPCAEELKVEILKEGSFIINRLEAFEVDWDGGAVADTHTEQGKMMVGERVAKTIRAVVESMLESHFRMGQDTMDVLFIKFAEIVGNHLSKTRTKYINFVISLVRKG

GhJMT1 = target: T2, GhJMT1 (Gossypium hirsutum, UniProt A0ACM8RG93); assay: as above; assay type: biochemical; conditions: SAM 1 uL of 100 mM, KCl, 25 °C, 30 min; empty vector control; product MeJA
T2 construct: gene JMT1; cloning primers encode MQVLHMN... ...ALTKKW (derived)
T2 sequence (A0ACM8RG93 1-371): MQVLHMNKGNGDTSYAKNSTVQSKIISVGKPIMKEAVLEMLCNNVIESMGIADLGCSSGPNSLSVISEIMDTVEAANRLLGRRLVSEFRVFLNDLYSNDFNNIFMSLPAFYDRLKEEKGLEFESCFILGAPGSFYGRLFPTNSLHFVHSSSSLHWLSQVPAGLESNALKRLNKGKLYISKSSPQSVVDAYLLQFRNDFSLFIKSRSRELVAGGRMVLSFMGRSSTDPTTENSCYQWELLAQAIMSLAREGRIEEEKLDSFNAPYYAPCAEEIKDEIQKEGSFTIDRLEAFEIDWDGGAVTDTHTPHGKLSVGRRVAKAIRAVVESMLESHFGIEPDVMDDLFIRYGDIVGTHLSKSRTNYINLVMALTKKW

CC/C=C\C[C@H]1C(=O)CC[C@@H]1CC(=O)O [jasmonic acid]
GC-MS product detection, recombinant E. coli supernatant (GhJMT2): recombinant GhJMT1 and GhJMT2 were both responsible for the conversion of JA to MeJA
GC-MS product detection, recombinant E. coli supernatant (GhJMT1): recombinant GhJMT1 and GhJMT2 were both responsible for the conversion of JA to MeJA
